Here are results for 4 molecules from publication PMC9668914, “Understanding VPAC receptor family peptide binding and selectivity” (Nature Communications, 2022).

The target of experiment [1] is Nluc-PAC1R (UniProt P41586). Description: FRET or BRET; NanoBRET whole cell competition binding; COS-7 cells with Nluc-PAC1R, 30 nM AF568-PACAP27 and increasing competing peptide added together, 4 °C, BRET buffer (0.1% ovalbumin, 10 mM HEPES, 1x HBSS, pH 7.45); one site fit of log IC50. On the technique in general: BRET reads energy transfer from a luciferase to a nearby fluorophore.

For experiment [2], the target named is T1, Nluc-PAC1R (Homo sapiens, UniProt P41586).
T1 construct: A construct containing N-terminal NLuc immediately after the native signal peptide of PAC1R was also generated in pcDNA3.1; expressed in transfected cells; host or cells: COS-7 (transient, PEI; whole cells at 4 °C)
T1 sequence (P41586 21-468): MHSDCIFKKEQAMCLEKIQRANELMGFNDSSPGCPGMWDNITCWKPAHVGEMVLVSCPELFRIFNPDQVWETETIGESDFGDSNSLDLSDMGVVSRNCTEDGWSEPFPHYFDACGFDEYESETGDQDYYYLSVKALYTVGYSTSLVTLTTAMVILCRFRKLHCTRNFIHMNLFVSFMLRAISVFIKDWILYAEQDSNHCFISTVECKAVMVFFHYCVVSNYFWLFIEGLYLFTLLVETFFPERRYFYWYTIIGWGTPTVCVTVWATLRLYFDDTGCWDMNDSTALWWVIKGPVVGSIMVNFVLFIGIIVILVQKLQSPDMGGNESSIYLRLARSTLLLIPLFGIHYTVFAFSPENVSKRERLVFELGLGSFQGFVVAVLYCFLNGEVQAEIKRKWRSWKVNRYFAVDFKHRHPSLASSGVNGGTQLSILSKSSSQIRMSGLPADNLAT
Put plainly: NanoBRET competition binding, AF568-PACAP27 probe (Fig. 5c). Particulars: COS-7, 30 nM AF568-PACAP27, 4 °C, read-out: pIC50, PAC1R competition binding (converted). From the text:
(§1) An HA signal peptide was inserted in place of the native signal peptide of the receptors and a FLAG epitope was incorporated into the receptor N-terminus immediately after the signal peptide. A His tag was fused to C-terminus of the receptor. 3C protease cleavage sites were inserted between both the FLAG and His tags and the receptor. […] The following PAC1R and VPAC1R mutants were also generated using Quikchange mutagenesis: PAC1R C25A, PAC1R C219A, PAC1R C25A/C219A, VPAC1R C37A and VPAC1R C208A. For all PAC1R constructs, we used the PAC1R null (PAC1n) splice variant. A construct containing N-terminal NLuc immediately after the native signal peptide of PAC1R was also generated in pcDNA3.1.
Therefore, the lysine residue at position 21 was replaced with a cysteine residue (^21C) for the facile conjugation of fluorophore via thiol-maleimide click reaction. The resulting target peptide ^21C-PACAP27 (Mutant fragment) with amidated C-terminus was synthesized by standard Fmoc-solid phase peptide synthesis method[43] and purified by Reversed-phase high-performance liquid chromatography (RP-HPLC). […] of Alexa Fluor™ 568F was purchased from ThermoFisher Scientific (Catalog number: A20003). The thiol-maleimide conjugation reaction was carried out by our published protocol. […] The molecular weight of the probe was confirmed by Matrix-Assisted Laser Desorption/Ionization Time-of-Flight Mass Spectrometry (MALDI-TOF MS).
COS-7 cells were plated in 10 cm dishes at approximately 1 million cells/dish. Cells were transfected 24 h later, using 3 μg of Nluc-PAC1R DNA using the method described above and then seeded at a density of 15,000 cells per well in white-bottom 96-well culturplates 24 h prior to assay. On the day of the assay, cell culture media was replaced with BRET buffer (0.1% ovalbumin, 10 mM HEPES, 1x HBSS, pH 7.45) and incubated at 4 °C for two hours. […] After 1.5 h, furimazine (10 μM final concentration) was added to each well and the plate incubated for a further 30 min in the dark at 4 °C before reading. Filtered light emissions were measured at 460±40 nm (donor channel) and at 610-LP nm (long pass) (acceptor channel) using a PHERAstar plate reader (BMG Labtech). The raw NanoBRET ratio was calculated by dividing the luminescence from the acceptor channel by the donor channel. Data were expressed as % AF568-PACAP27 BRET signal in the absence of competing ligand.
(§2) The pharmacological data in figures and tables are reported as mean + standard error of the mean (SEM) with the number of biological replicates indicated in the figure and table legends where “n” represents the number of biological replicates performed. Concentration-response data were analyzed in GraphPad Prism version 9.4.0 using a three-parameter logistic curve to derive pEC50 values for the cyclic AMP accumulation. Competition binding data were analyzed in GraphPad Prism using the one site—Fit log IC50 model to derive pIC50 values. For the cysteine mutagenesis data, comparisons of multiple different groups were performed using one-way analysis of variance (ANOVA), followed by Dunnett’s post-hoc test with the control group being the WT receptor, with significance accepted at p < 0.05. For the chimeric peptide data, comparisons of multiple different groups were performed using one-way ANOVA, followed by Tukey’s post-hoc test, with significance accepted at p < 0.05.

Another experiment has as its target T2, PAC1R (Homo sapiens, UniProt P41586).
T2 construct: An HA signal peptide was inserted in place of the native signal peptide of the receptors; HA signal peptide (replaces the native signal peptide) (N); 3C protease cleavage sites (between FLAG and receptor, and between receptor and His) (internal); expressed in transfected cells; host or cells: COS-7 (transient, PEI)
T2 sequence (P41586 21-468): T1 sequence (P41586 21-468)
Description: cAMP accumulation, chimeric peptides (Fig. 5b). Particulars: COS-7, three-parameter logistic, read-out: pEC50, PAC1R cAMP (converted). It is filed as cell-based.
Text: as §1
COS-7 cells were used for the chimeric peptide and cysteine mutagenesis pharmacological assays due to their lack of endogenous expression of PAC1R and receptor activity-modifying proteins, reported to potentially heterodimerize with PAC1R and VPAC1R[42]. Cells were cultured in Dulbecco’s Modified Eagle’s Medium (DMEM) (Invitrogen) supplemented with 5% v/v heat-inactivated FBS at 37 °C and […] /5% CO2 in a humidified incubator. COS-7 cells were plated in 10 cm dishes at approximately 1 million cells/dish. Cells were transfected 24 h later, with 5 µg of either WT or mutant PAC1R or VPAC1R receptor DNA. DNA and PEI (in a 1:6 ratio) were each diluted in 150 mM NaCl, and then combined and incubated for 10 min, before the mixture was added to the 10 cm dish. The next day, cells were harvested from the 10 cm dishes using Trypsin-Versene (PBS + 0.5 mM EDTA, pH 7.4), and were seeded at a density of 15,000 cells/well into clear 96-well culture plates and incubated overnight at 37 °C in 5% CO2 for cAMP accumulation assay the next day.
The reaction was terminated after 30 min by aspiration of the buffer and addition of 50 μl of ice-cold ethanol. Upon evaporation of ethanol, 75 μl of lysis buffer (5 mM HEPES, 0.1% (w/v) OVA, 0.3% (w/v) Tween20, pH 7.4) was added to the cells. cAMP detection was performed using a LANCE cAMP Detection Kit (PerkinElmer) for the construct validation and cysteine mutagenesis pharmacological assays and cAMP Gs HiRange kit (Cisbio) for the chimeric peptide pharmacological assays. The plates were read using an EnVision plate reader with excitation at 320 nm and emission at 615 nm[45].
as §2
(In general: Changes in cAMP serve as a functional read-out for many G protein-coupled receptors.)

In another experiment the test system is GLP-1R. Particulars: cited from earlier work. From the text:
In the equivalent position as R ...

For experiment [3], the system named is PAC1R WT, C25A, C219A, C25A/C219A. Description: cAMP accumulation, cysteine mutagenesis (Fig. 6e, Supplementary Fig. 13d-f). The following applies: COS-7, mean of n = 3. It is filed as cell-based. On the procedure: (§3) Maps are shown in transparent and model backbones are shown in ribbon format. The relevant cysteines are shown as stick models, with the putative disulfide bond present. […] The data for panels d and e are the mean ± SEM, n = 3 independent experiments. Differences in potency between WT and mutant receptors was assessed using a one-way ANOVA and Dunnett’s post-test. […] Interactions are listed by percentage of occupancy of frames, with the background colouring representing maximum occupancy % (red) and minimum occupancy % (white). Receptor residue background colouring is according to their residue numbering (TM transmembrane helix, ECL3 extracellular loop 3). Table is based on data presented in Supplementary Table 4. Source data for panels d and e are provided in the Source Data file.
as §1
(§4) COS-7 cells were used for the chimeric peptide and cysteine mutagenesis pharmacological assays due to their lack of endogenous expression of PAC1R and receptor activity-modifying proteins, reported to potentially heterodimerize with PAC1R and VPAC1R[42]. […] COS-7 cells were plated in 10 cm dishes at approximately 1 million cells/dish. Cells were transfected 24 h later, with 5 µg of either WT or mutant PAC1R or VPAC1R receptor DNA. […]
(§5) The reaction was terminated after 30 min by aspiration of the buffer and addition of 50 μl of ice-cold ethanol. […] The plates were read using an EnVision plate reader with excitation at 320 nm and emission at 615 nm[45].
(§6) The pharmacological data in figures and tables are reported as mean + standard error of the mean (SEM) with the number of biological replicates indicated in the figure and table legends where “n” represents the number of biological replicates performed. Concentration-response data were analyzed in GraphPad Prism version 9.4.0 using a three-parameter logistic curve to derive pEC50 values for the cyclic AMP accumulation. Competition binding data were analyzed in GraphPad Prism using the one site—Fit log IC50 model to derive pIC50 values. […]

For the next experiment, the system named is M299^PAC1R/D301^PAC1R. The following applies: cited from earlier work. From the text: Nonetheless, the secondary engagement of the peptide N-terminus with ECL2/ECL3 appeared to coordinate interactions that preceded the movement of the far N-terminal residues deeper into the binding pocket. Unique residues in ECL2 that differ between the V ...
Another experiment deals with VPAC1R WT, C37A, C208A. Put plainly: cAMP accumulation, cysteine mutagenesis (Fig. 6d, Supplementary Fig. 13a-c). The experiment is classed as cell-based. Particulars: for Difference in cAMP potency (pEC50) between WT and mutant VPAC1R: COS-7, mean of n = 3. On the procedure:
as §3, §1, §4, §5, §6

Like-named read-outs stand apart in the source and are kept apart here.

In the case of Ala4 PACAP27 (peptide), the fold reduction in pIC50 relative to PACAP27 with Nluc-PAC1R [1] came out at 30 fold.
In the case of `CC[C@H](C)[C@H](NC(=O)[C@H](CO)NC(=O)[C@H](CC(N)=O)NC(=O)[C@H](CC(C)C)NC(=O)[C@H](Cc1ccc(O)cc1)NC(=O)[C@H](CCCCN)NC(=O)[C@H](CCCCN)NC(=O)[C@@H](NC(=O)[C@H](C)NC(=O)[C@H](CCSC)NC(=O)[C@H](CCC(N)=O)NC(=O)[C@H](CCCCN)NC(=O)[C@H](CCCN=C(N)N)NC(=O)[C@H](CC(C)C)NC(=O)[C@H](CCCN=C(N)N)NC(=O)[C@@H](NC(=O)[C@H](Cc1ccc(O)cc1)NC(=O)[C@H](CC(N)=O)NC(=O)[C@H](CC(=O)O)NC(=O)[C@@H](NC(=O)[C@H](Cc1ccccc1)NC(=O)[C@@H](NC(=O)[C@H](C)NC(=O)[C@H](CC(=O)O)NC(=O)[C@H](CO)NC(=O)[C@@H](N)Cc1c[nH]cn1)C(C)C)[C@@H](C)O)[C@@H](C)O)C(C)C)C(=O)N[C@@H](CC(C)C)C(=O)N[C@@H](CC(N)=O)C(N)=O` [VIP, vasoactive intestinal peptide, reference compound], the IC50 at Nluc-PAC1R [2] (replicate n=1) is 4500 nM; at Nluc-PAC1R [2] (replicate n=2) it was 8090 nM; on Nluc-PAC1R [2] (replicate n=3), 12700 nM; at Nluc-PAC1R [2] (replicate n=4) it was 15700 nM; at Nluc-PAC1R [2] (replicate n=5), 7140 nM. Further, the EC50 on PAC1R (replicate n=1) was 38.5 nM; at PAC1R (replicate n=2), 30.9 nM; at PAC1R (replicate n=3), 43.3 nM; at PAC1R (replicate n=4) it was 76.4 nM; on PAC1R (replicate n=5) it was 104 nM.
Take GLP-1: glucagon-like peptide 1: in the experiment on GLP-1R, the “GLP-1 affinity with R380 of GLP-1R switched to the VPAC1R residue” value was “reduced GLP-1 affinity” and the “GLP-1 potency for cAMP production at GLP-1R D372A, E373A” value is “reduced GLP-1 potency for cAMP production”.
Take “PACAP38: PACAP38, a 38 amino acid peptide”: the “Difference in cAMP potency (pEC50) between WT and mutant PAC1R” value is recorded as -0.4376 in experiment [3] (C25A C219A), -0.9347 in experiment [3] (C25A), -0.4471 in experiment [3] (C219A) and 0 in experiment [3] (WT). In addition, the “PACAP38-mediated cAMP production with alanine mutation of M299/D301 PAC1R” value with M299^PAC1R/D301^PAC1R is “reduced PACAP38-mediated cAMP production”. For the same molecule, the “Difference in cAMP potency (pEC50) between WT and mutant VPAC1R” value is recorded as -0.5843 with VPAC1R WT, C37A, C208A (C37A); -0.568 with VPAC1R WT, C37A, C208A (C208A); 0 with VPAC1R WT, C37A, C208A (WT). The “reduction in cAMP potency at single cysteine mutants of either receptor, compared with VIP” value with VPAC1R WT, C37A, C208A (VPAC1R and PAC1R single mutants (Fig. 6d, e), only significant for PACAP27 at C37A VPAC1R or C25A PAC1R) is reported as “much smaller reduction in potency”.
